# Experimental data: patent US8642611B2, “Alkynylpyrimidines and salts thereof, pharmaceutical compositions comprising same, methods of preparing same and uses of same” (Bayer Intellectual Property GmbH, priority 2007, dated 2014)
# Experiments:
# CDK2/CycE = biological target: T1, CDK2/CycE (Homo sapiens, UniProt P24941); assay: CDK2/Cyclin E Kinase Assay; format: biochemical; details: CDK2/CycE HTRF, 10 μM ATP; read-out: CDK2 activity (assay 6)
# T1 construct: GST; purchased ProQinase GmbH (Freiburg, Germany); host or cells: insect cells (Sf9)
# Description: Assay 6: CDK2/Cyclin E Kinase Assay
# CDK2/CyclinE—inhibitory activity of compounds of the present invention was quantified employing the CDK2/CycE HTRF assay as described in the following paragraphs.
# Recombinant fusion proteins of GST and human CDK2 and of GST and human CycE, expressed in insect cells (Sf9) and purified by Glutathion-Sepharose affinity chromatography, were purchase from ProQinase GmbH (Freiburg, Germany). As substrate for the kinase reaction biotinylated peptide biotin-Ttds-YISPLKSPYKISEG (C-terminus in amid form) was used which can be purchased e.g. form the company JERINI peptide technologies (Berlin, Germany).
# CDK2/CycE was incubated for 60 min at 22° C. in the presence of different concentrations of test compounds in 5 μl assay buffer [50 mM Tris/HCl pH 8.0, 10 mM MgCl2, 1.0 mM dithiothreitol, 0.1 mM sodium ortho-vanadate, 10 μM adenosine-tri-phosphate (ATP), 0.75 μM substrate, 0.01% (v/v) Nonidet-P40 (Sigma), 1% (v/v) dimethylsulfoxide]. The concentration of CDK2/CycE was adjusted depending of the activity of the enzyme lot and was chosen appropriate to have the assay in the linear range, typical concentrations were in the range of 1 ng/ml. The reaction was stopped by the addition of 5 μl of a solution of HTRF detection reagents (0.2 μM streptavidine-XLent and 3.4 nM Phospho-(Ser) CDKs Substrate Antibody [product #2324B, Cell Signaling Technology, Danvers, Mass., USA} and 4 nM Prot-A-EuK [Protein A labeled with Europium Cryptate from Cis biointernational, France, product no. 61PRAKLB]) in an aqueous EDTA-solution (100 mM EDTA, 800 mM KF, 0.2% (w/v) bovine serum albumin in 100 mM HEPES/NaOH pH 7.0).
# The resulting mixture was incubated 1 h at 22° C. to allow the formation of complex between the phosphorylated biotinylated peptide and the detection reagents. Subsequently the amount of phosphorylated substrate was evaluated by measurement of the resonance energy transfer from the Prot-A-EuK to the streptavidine-XLent. Therefore, the fluorescence emissions at 620 nm and 665 nm after excitation at 350 nm was measured in a HTRF reader, e.g. a Rubystar (BMG Labtechnologies, Offenburg, Germany) or a Viewlux (Perkin-Elmer). The ratio of the emissions at 665 nm and at […] was taken as the measure for the amount of phosphorylated substrate. The data were normalised (enzyme reaction without inhibitor=0% inhibition, all other assay components but no enzyme=100% inhibition) and IC50 values were calculated by a 4 parameter fit using an inhouse software.
# Tie2 = Tie2 (Homo sapiens, UniProt Q02763); assay: Tie2 ELISA assay (cellular Tie2 autophosphorylation, angiopoietin-2 stimulated); format: cell-based; design: expressed in transfected cells; host or cells: CHO (DHFR-deficient), stably transfected with Tie2; details: CHO cells stably transfected with Tie2, stimulated by angiopoietin-2; Tie2 autophosphorylation by sandwich-ELISA; read-out: Tie2 activity (assay 1)
# Chain of Tie2 (Q02763 23-1124): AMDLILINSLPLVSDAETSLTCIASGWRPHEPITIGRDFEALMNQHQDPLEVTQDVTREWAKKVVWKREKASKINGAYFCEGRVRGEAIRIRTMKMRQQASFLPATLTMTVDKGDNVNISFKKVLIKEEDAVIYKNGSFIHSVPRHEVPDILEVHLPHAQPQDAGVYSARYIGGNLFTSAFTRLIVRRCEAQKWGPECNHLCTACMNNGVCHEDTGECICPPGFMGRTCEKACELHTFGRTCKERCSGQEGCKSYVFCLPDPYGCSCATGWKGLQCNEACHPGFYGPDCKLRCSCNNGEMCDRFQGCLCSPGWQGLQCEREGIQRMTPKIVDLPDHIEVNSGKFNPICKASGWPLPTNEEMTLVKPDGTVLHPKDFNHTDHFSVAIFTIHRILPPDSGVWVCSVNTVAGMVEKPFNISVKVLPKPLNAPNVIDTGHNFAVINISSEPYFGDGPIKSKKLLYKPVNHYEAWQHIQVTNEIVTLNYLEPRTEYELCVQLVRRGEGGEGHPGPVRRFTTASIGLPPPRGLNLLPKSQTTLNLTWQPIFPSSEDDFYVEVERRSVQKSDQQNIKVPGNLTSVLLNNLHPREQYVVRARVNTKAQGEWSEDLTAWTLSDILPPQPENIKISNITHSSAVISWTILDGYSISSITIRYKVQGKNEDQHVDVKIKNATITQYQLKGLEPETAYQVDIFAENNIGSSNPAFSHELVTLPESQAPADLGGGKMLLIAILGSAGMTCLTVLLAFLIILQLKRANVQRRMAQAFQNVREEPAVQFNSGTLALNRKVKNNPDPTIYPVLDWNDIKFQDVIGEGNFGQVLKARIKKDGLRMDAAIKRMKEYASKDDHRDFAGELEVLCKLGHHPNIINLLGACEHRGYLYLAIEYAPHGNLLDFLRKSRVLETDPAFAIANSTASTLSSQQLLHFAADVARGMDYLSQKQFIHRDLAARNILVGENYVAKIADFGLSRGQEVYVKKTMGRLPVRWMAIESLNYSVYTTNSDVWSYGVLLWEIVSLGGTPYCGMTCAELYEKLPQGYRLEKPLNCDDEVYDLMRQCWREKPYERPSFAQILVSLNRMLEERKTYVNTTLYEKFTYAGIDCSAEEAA
# Method: Assay 1: Tie2 ELISA Assay
# Cellular activity of compounds of the present invention as inhibitors of Tie2 kinase activity was measured employing a Tie2 ELISA assay as described in the following paragraphs. Herein CHO cell-cultures, which are stably transfected by known techniques with Tie2 using DHFR deficiency as selection marker, are stimulated by angiopoietin-2. The specific autophosphorylation of Tie2 receptors is quantified with a sandwich-ELISA using anti-Tie2 antibodies for catch and anti-phosphotyrosine antibodies coupled to HRP for detection.
# • 96well tissue culture plate, sterile, Greiner • 96well FluoroNunc plate MaxiSorp Surface C, Nunc • 96well plate polypropylene for compound dilution in DMSO • CHO Tie2/DHFR (transfected cells) • PBS−; PBS++, DMSO • MEM alpha Medium with Glutamax-I without Ribonucleosides and • Deoxyribonucleosides (Gibco #32561-029) • with 10% FCS after dialysis! and 1% PenStrep • Lysis buffer: 1 Tablet “Complete” protease inhibitor • 1 cap Vanadate (1 mL>40 mg/mL; working solution 2 mM) • ad 50 mL with Duschl-Puffer • pH 7.6 • Anti-Tie2-antibody 1: 425 in Coating Buffer pH 9.6 • Stock solution: 1.275 mg/mL>working.: 3 μg/mL • PBST: 2 bottles PBS(10×)+10 ml Tween, fill up with VE-water • RotiBlock 1: 10 in VE-water • Anti-Phosphotyrosine HRP-Conjugated 1: 10000 in 3% TopBlock • 3% TopBlock in PBST • BM Chemiluminescence ELISA Substrate (POD) • solution B 1: 100 solution A • SF9 cell culture medium • Ang2-Fc in SF9 cell culture medium Cell Experiment: • Dispense 5×10^4 cells/well/98 μL in 96well tissue culture plate • Incubate at 37° C./5% CO2 • After 24 h add compounds according to desired concentrations • Add also to control and stimulated values without compounds 2 μL DMSO • And mix for a few min at room temperature • Add 100 μL Ang2-Fc to all wells except control, which receives insect medium • Incubate 20 min at 37° C. • Wash 3× with PBS++ • Add 100 μl Lysis buffer/well and shake a couple of min at room temperature • Store lysates at […] before utilizing for the ELISA Performance of Sandwich-ELISA • Coat 96well FluoroNunc Plate MaxiSorp Surface C with anti-Tie2 mAb 1: 425 in Coating buffer pH 9.6; 100 μL/well overnight at 4° C. • Wash 2× with PBST • Block plates with 250 μL/well RotiBlock 1: 10 in VE-water • Incubate for 2 h at room temperature or overnight at 4° C. shaking • Wash 2× in PBST • Add thawed lysates to wells and incubate overnight shaking at 4° C. • Wash 2× with PBST • Add 100 μL/well anti-Phosphotyrosine HRP-Conjugated 1:10000 in 3% TopBlock (3% TopBlock in PBST) and incubate overnight under shaking • Wash 6× with PBST • Add 100 μL/well BM Chemiluminescence ELISA Substrate (POD) • solutions 1 und 2 (1:100) • Determine luminescence with the LumiCount. Assay 2: Tie-2-Kinase HTRF-Assay without kinase preactivation
IC50 (CDK2/CycE),IC50 (Tie2),Structure (SMILES)
> 10 µM,< 0.5 µM,"C[C@H](CO)Nc1nc(Nc2ccc(S(C)(=N)=O)cc2)ncc1C#Cc1ccccc1 (mixture of isomers) [Example 1.2, (RS)-S-(4-[4-((R)-2-Hydroxy-1-methyl-ethylamino)-5-(phenylethynyl)-pyrimidin-2-ylamino]-phenyl)-S-methylsulfoximide]"
1 to 10 µM,< 0.5 µM,"CC(C)NC(=O)N=S(C)(=O)c1cccc(Nc2ncc(C#Cc3cccc(O)c3)c(N[C@H](C)CO)n2)c1 (mixture of isomers) [Example 1.15, (RS)-S-(3-[4-((R)-2-Hydroxy-1-methyl-ethylamino)-5-(3-hydroxy-phenylethynyl)-pyrimidin-2-ylamino]-phenyl)-N-(isopropylcarbamoyl)-S-methylsulfoximide]"
> 10 µM,< 0.5 µM,"COc1ccc(C#Cc2cnc(Nc3cccc(S(C)(=N)=O)c3)nc2N[C@H](C)CO)cc1 (mixture of isomers) [Example 1.17, (RS)-S-(3-[4-((R)-2-Hydroxy-1-methyl-ethylamino)-5-(4-methoxy-phenylethynyl)-pyrimidin-2-ylamino]-phenyl)-S-methylsulfoximide]"
1 to 10 µM,< 0.5 µM,"C[C@H](CO)Nc1nc(Nc2cccc(S(C)(=N)=O)c2)ncc1C#Cc1cccc(O)c1 (mixture of isomers) [Example 1.18, (RS)-S-(3-[4-((R)-2-Hydroxy-1-methyl-ethylamino)-5-(3-hydroxy-phenylethynyl)-pyrimidin-2-ylamino]-phenyl)-S-methylsulfoximide]"
,< 0.5 µM,"Cc1ccccc1C#Cc1cnc(Nc2cccc(S(C)(=N)=O)c2)nc1N[C@H](C)CO (mixture of isomers) [Example 1.19, (RS)-S-(3-[4-((R)-2-Hydroxy-1-methyl-ethylamino)-5-(2-methyl-phenylethynyl)-pyrimidin-2-ylamino]-phenyl)-S-methylsulfoximide]"
,< 0.5 µM,"Cc1cc(C#Cc2cnc(Nc3cccc(S(C)(=N)=O)c3)nc2N[C@H](C)CO)ccc1F (mixture of isomers) [Example 1.20, (RS)-S-(3-[5-(4-Fluoro-3-methyl-phenyl-ethynyl)-4-((R)-2-hydroxy-1-methyl-ethylamino)-pyrimidin-2-ylamino]-phenyl)-S-methylsulfoximide]"
1 to 10 µM,< 0.5 µM,CCOC(=O)N=S(C)(=O)c1ccc(Nc2ncc(C#Cc3cccc(O)c3)c(N[C@H](C)CO)n2)cc1 (mixture of isomers) [Example 2.7]

# Continued, compound first:
Structure (SMILES),IC50 (CDK2/CycE),IC50 (Tie2)
"COc1ccc(C#Cc2cnc(Nc3ccc(S(C)(=N)=O)cc3)nc2N[C@H](C)CO)cc1 (mixture of isomers) [Example 1.1, (RS)—S-(4-[4-((R)-2-Hydroxy-1-methyl-ethylamino)-5-(4-methoxy-phenylethynyl)-pyrimidin-2-ylamino]-phenyl)-S-methylsulfoximide]",> 10 µM,< 0.5 µM
"CCc1ccc(C#Cc2cnc(Nc3ccc(S(C)(=N)=O)cc3)nc2N[C@H](C)CO)cc1 (mixture of isomers) [Example 1.8, (RS)-S-(4-[5-(4-Ethyl-phenylethynyl)-4-((R)-2-hydroxy-1-methyl-ethylamino)-pyrimidin-2-ylamino]-phenyl)-S-methylsulfoximide]",> 10 µM,< 0.5 µM
"C[C@H](CO)Nc1nc(Nc2ccc(S(C)(=N)=O)cc2)ncc1C#Cc1ccc(F)cc1 (mixture of isomers) [Example 1.9, (RS)-S-(4-[5-(4-Fluoro-phenyl-ethynyl)-4-((R)-2-hydroxy-1-methyl-ethylamino)-pyrimidin-2-ylamino]-phenyl)-S-methylsulfoximide]",> 10 µM,< 0.5 µM
"Cc1cc(C#Cc2cnc(Nc3ccc(S(C)(=N)=O)cc3)nc2N[C@H](C)CO)ccc1F (mixture of isomers) [Example 1.13, (RS)-S-(4-[5-(4-Fluoro-3-methyl-phenyl-ethynyl)-4-((R)-2-hydroxy-1-methyl-ethylamino)-pyrimidin-2-ylamino]-phenyl)-S-methylsulfoximide]",> 10 µM,< 0.5 µM
Cc1ccccc1C#Cc1cnc(Nc2ccc(S(C)(=N)=O)cc2)nc1N[C@H](C)CO (mixture of isomers) [Example 1.3],1 to 10 µM,< 0.5 µM
Cc1ccc(C#Cc2cnc(Nc3ccc(S(C)(=N)=O)cc3)nc2N[C@H](C)CO)cc1 (mixture of isomers) [Example 1.5],1 to 10 µM,< 0.5 µM
"CCNc1nc(Nc2ccc(S(C)(=N)=O)cc2)ncc1C#Cc1ccc(F)c(C)c1 (racemic) [Example 1.24, (RS)-S-(4-[4-ethylamino-5-(4-fluoro-3-methyl-phenyl-ethynyl)-pyrimidin-2-ylamino]-phenyl)-S-methylsulfoximide]",> 10 µM,< 0.5 µM
"CCNc1nc(Nc2ccc(S(C)(=N)=O)cc2)ncc1C#Cc1ccc(OC)cc1 (racemic) [Example 1.26, (RS)-S-(4-[4-ethylamino-5-(4-methoxy-phenyl-ethynyl)-pyrimidin-2-ylamino]-phenyl)-S-methylsulfoximide]",> 10 µM,< 0.5 µM
"CS(=N)(=O)c1cccc(Nc2ncc(C#Cc3cccc(O)c3)cn2)c1 (racemic) [Example 4.2, (RS)—S-(3-[5-(3-hydroxy-phenylethynyl)-pyrimidin-2-ylamino]-phenyl)-S-methylsulfoximide]",> 10 µM,< 0.5 µM
